Key:
4T1 breast cancer tumors = test: Efficacy study of SNPs in murine 4T1 breast cancer model; format: in vivo, BALB/c mice; details: 5 mg/kg PI103 equivalent, 3 injections every other day
Method: 4T1 breast cancer cells ([…]) were implanted subcutaneously in the flanks of 4-week-old BALB/c mice. The drug therapy was started on day 9. The drug therapy consisted of administration of PBS (for Control group), free drug (5 mg/kg) and SNPs (5 mg/kg). For PI103-SNPs, the drug therapy also consisted iRGD-PI103-SNPs group (5 mg/kg). The tumor volumes and body weights were monitored on every alternate day for 11 days.
The drug therapy was started on day 9. For PI828-SNPs, the drug therapy consisted of administration of PBS (for Control group), free PI-828 (5 mg/kg) and PI828-SNPs (5 mg/kg). For PI103-SNPs, the drug therapy consisted of administration of PBS (for control group), free PI-103 (5 mg/kg) and PI103-SNPs (5 mg/kg) and 1RGD-PI103-SNPs (5 mg/kg) (administered by tail-vain injection). The tumor volumes and body weights were monitored on every alternate day for 11 days. […] The animals were sacrificed when the average tumor volume of the control exceeded 2000 mm3 in the control group.

[1] = tested on: K-Ras^LSL/+/Pten^fl/fl ovarian cancer; test: Efficacy study of PI103-SNPs in murine ovarian cancer tumor model; format: in vivo, mice; details: after 3 doses, 5 mg/kg
Method: Ovarian adenocarcinomas were induced in genetically engineered K-Ras^LSL/+/Pten^fl/fl mice via intrabursal delivery of adenovirus-carrying Cre recombinase. Tumor cells were also engineered to express luciferase once activated by Adeno-Cre to make tumor imaging possible before and after drug treatment. Once mice developed medium to large tumors, they were placed into one of four treatment groups (vehicle, Free-PI-103 5 mg/kg, PI-103-SNP 5 mg/kg, and iRGD-PI103-SNP 5 mg/kg) and all drugs were administered via tail vein injection. Tumor imaging in vivo was performed using an 1VIS Lumina II Imaging System. Quantification of bioluminescence was achieved by using Living Image Software 3.1 (Caliper Life Sciences). Images were taken a day prior to initial treatment (day 0, baseline image), after 3 treatments, and 1 d after 5 treatments.
Ovarian adenocarcinomas were induced in genetically engineered K-ras isu+/Pten mice via intrabursal delivery of adenovirus-carrying Cre recombinase. Tumor cells were also engineered to express luciferase once activated by Adeno-Cre to make tumor imaging possible before and after drug treatment. […] Quantification of bioluminescence was achieved by using Living Image Software 3.1™ (Caliper Life Sciences). […]

[2] = tested on: phospho AKT, phospho mTOR, phospho 4EBP in 4T1 tumors; test: Western blot assay of in vivo 4T1 tumor samples; design: species or system BALB/c mice; details: single injection 5 mg/kg, 72 hours
Method: For animal tissue, tumor stored in −80° C. were pulverized in a mortar and pestle using liquid nitrogen, then treated with RIPA buffer to extract the protein. Amount of protein was measured by BCA assay and equal amount of protein lysates were electrophoresed on a polyacrylamide gel, then transferred to polyvinylidene difluoride membrane, (BIO-RAD) and blocked in with 5% milk solution. Then membranes were incubated with appropriate concentration of primary antibody overnight at 4° C., followed by horseradish peroxidase-conjugated secondary antibody for 1 hour. Detection was done using G-box from SYNGENE and densitometric quantification was done by IMAGE-J software.
For animal tissue, tumor stored in −80° C. were pulverized in a mortar and pestle using liquid nitrogen, then treated with RIPA buffer to extract the protein. Amount of protein was measured by BCA assay and equal amount of protein lysates were electrophoresed on a polyacrylamide gel, then transferred to polyvinylidene difluoride membrane, (Bic-Rad) and blocked in with 5% milk scullion. Then membranes were incubated with appropriate concentration of primary antibody (all antibodies from Cell Signalling Technology) overnight at 4° C., followed by horseradish peroxidase-conjugated secondary antibody for 1 hour. Detection was done using G-box from Syngene and densitometric quantification was done by image J™ software.

[3] = tested on: phosphorylation of Akt in 4T1 cells; test: Western blot assay of phospho AKT in cells; format: cell-based, murine
Method: The protein was collected and protein lysates were electrophoresed. Then membranes were incubated with Phospho AKT, total AKT and actin antibodies overnight at 4° C. After appropriate amount of washing with TBST, membranes were incubated with horseradish peroxidase-conjugated secondary antibody for 1 hour. Detection was done using G-box (Syngene) and densitometric quantification was done by image J software. […] When cells were 70% confluent, they were incubated in serum free media for 6 hours. Then, free drug or equivalent amount of drug loaded nanoparticles were added in appropriate concentration in serum deprived media (1% FBS). […] Amount of protein was measured by […] and equal amount of protein lysates were electrophoresed on a 4-20% polyacrylamide gel, transferred to polyvinylidene difluoride membrane, and blocked in TBST-T with 5% dry milk. Then membranes were incubated in TBST with Phospho AKT (S473) (1:500 dilution), total AKT (1:1000 dilution), and actin (1:2000 dilution) antibodies (all antibodies from Cell Signalling Technology) overnight at 4° C. After appropriate amount of washing with TBST, membranes were incubated with horseradish peroxidase-conjugated secondary antibody for 1 hour. Detection was done using G-Box™ from Syngene and densitometric quantification was done by image J™ software.

With `Oc1cccc(-c2nc(N3CCOCC3)c3oc4ncccc4c3n2)c1` [PI103] the tumor growth (4T1 breast cancer tumors) was “tumor growth inhibition relative to PBS-treated controls, but tumor rebound was observed after the treatment was stopped”, the tumor luciferase bioluminescence [1] was “significant tumor regression as compared to vehicle control” and the “intratumoral Akt phosphorylation” value [2] was “intratumoral Akt phosphorylation was inhibited”. For the same compound, the “phosphorylation of AKT after transient exposure” value ([3]; 4 hours exposure, wash, followed to 48 hours) was “rebound increase in phosphorylation of AKT” and the “basal phosphorylation of Akt” value ([3]; equimolar PI103 (5 pM), continuous incubation, 48 hours) was “inhibited basal phosphorylation of Akt even at 48 hours of continuous incubation”.
